These results are taken from EP4273147A1, “SUBSTITUTED SPIROLACTAMS, SALTS THEREOF AND THEIR USE AS HERBICIDALLY ACTIVE SUBSTANCES” (Bayer Aktiengesellschaft, priority 2022, dated 2023).

For one assay, the system named is STEME. Kind of assay: Herbicidal pre-emergence action (Table A6). In kind it is in vivo, Stellaria media. The settings on record: application rate 1280 g/ha; visual grading after ca. 3 weeks. An excerpt:
(§1) Seeds of mono- and dicotyledonous weed plants were sown in plastic pots (double sowings with one species of mono- and one species of dicotyledonous weed plants per pot), in sandy loam, and covered with soil.

Assay [1] concerns POAAN. Kind of assay: Herbicidal pre-emergence action (Table A7). In kind it is in vivo, Poa annua. The conditions noted are these: visual grading after ca. 3 weeks; for pest or weed control at 1280 g/ha: Poa annua, pre-emergence, 504 h, read-out: pre-emergence activity against POAAN.
Source text: as §1

The test system of assay [2] is ECHCG. Kind of assay: Herbicidal post-emergence action (Table B3). In kind it is in vivo, Echinochloa crus-galli. The conditions noted are these: application rate 1280 g/ha; rated visually after about 3 weeks. Here is the method:
(§2) Seeds of mono- and dicotyledonous weed plants were placed in plastic pots in sandy loam soil (doubly sown with in each case one species of mono- or dicotyledonous weed plants per pot), covered with soil and cultivated in a greenhouse under controlled growth conditions. 2 to 3 weeks after sowing, the test plants were treated at the one-leaf stage. […] After the test plants had been kept in the greenhouse under optimum growth conditions for about 3 weeks, the activity of the preparations was rated visually in comparison to untreated controls. For example, 100% activity = the plants have died, 0% activity = like control plants.

A further assay has as its system SETVI. Kind of assay: Herbicidal pre-emergence action (Table A5). It counts as in vivo, Setaria viridis. The conditions noted are these: visual grading after ca. 3 weeks.
Source text: as §1

In a further assay the test system is LOLRI. Kind of assay: Herbicidal pre-emergence action (Table A3). In kind it is in vivo, Lolium rigidum. The conditions noted are these: visual grading after ca. 3 weeks.
Source text: as §1

The test system of assay [3] is ECHCG. Kind of assay: Herbicidal pre-emergence action (Table A2). The conditions noted are these: application rate 1280 g/ha; visual grading after ca. 3 weeks. It counts as in vivo, Echinochloa crus-galli.
Source text: as §1

In a further assay the test system is DIGSA. Kind of assay: Herbicidal pre-emergence action (Table A12). In kind it is in vivo, Digitaria sanguinalis. The settings on record: visual grading after ca. 3 weeks.
Source text: as §1

The next assay has as its system KCHSC. Kind of assay: Herbicidal pre-emergence action (Table A10). It counts as in vivo, Kochia scoparia. The settings on record: application rate 1280 g/ha; visual grading after ca. 3 weeks.
Source text: as §1

In assay [4] the test system is POAAN. Kind of assay: Herbicidal post-emergence action (Table B7). The conditions noted are these: application rate 1280 g/ha. In kind it is in vivo, Poa annua. Here is the method: as §2

Turning to `O=C1N(Cc2ccc(F)cc2Cl)CCCC12CCCN(Cc1ccc(F)cc1Cl)C2=O` (racemic) [I-070], the “pre-emergence activity against STEME” value in the assay on STEME worked out at 90%. The “pre-emergence activity against POAAN” value with POAAN [1] (application rate 1280 g/ha) is on record as 100%.

Turning to `O=C1N(Cc2ccccc2Cl)CCC12CCCN(Cc1cccc(F)c1F)C2=O` (racemic) [I-049], the “pre-emergence activity against STEME” value with STEME amounted to 90%. The “post-emergence activity against ECHCG” value in the assay on ECHCG [2] worked out at 90%. The “pre-emergence activity against SETVI” value in the assay with SETVI (application rate 320 g/ha) stood at 100%. Also, in the assay with LOLRI (application rate 320 g/ha), the “pre-emergence activity against LOLRI” value was 90%. Further, the “pre-emergence activity against ECHCG” value in the assay with ECHCG [3] is recorded as 100%. The “pre-emergence activity against POAAN” value in the assay with POAAN [1] (application rate 320 g/ha) was 100%. Besides, the “pre-emergence activity against DIGSA” value in the assay on DIGSA (application rate 320 g/ha) is reported as 90%.

In the case of `O=C1N(Cc2ccccc2C(F)F)CCCC12CCCN(Cc1ccccc1C(F)F)C2=O` (racemic) [I-067], the “pre-emergence activity against SETVI” value in the assay on SETVI (application rate 1280 g/ha) is on record as 100%. Further, in the assay on POAAN [1] (application rate 320 g/ha), the “pre-emergence activity against POAAN” value is reported as 100%.

For the compound `O=C1N(Cc2c(F)c(F)c(F)c(F)c2F)CCCC12CCCN(Cc1c(F)c(F)c(F)c(F)c1F)C2=O` (racemic) [I-050], the “pre-emergence activity against STEME” value in the assay on STEME came to 100%. Moreover, in the assay on ECHCG [2], the “post-emergence activity against ECHCG” value was determined as 100%. Moreover, the “pre-emergence activity against SETVI” value in the assay on SETVI (application rate 1280 g/ha) came out at 100%. For the same compound, the “pre-emergence activity against ECHCG” value in the assay on ECHCG [3] came to 100%. Also, the “pre-emergence activity against POAAN” value in the assay on POAAN [1] (application rate 1280 g/ha) is given as 100%.

With `O=C1N(Cc2cscc2Br)CCCC12CCCN(Cc1cscc1Br)C2=O` (racemic) [I-186, 2,8-bis[(4-bromothiophen-3-yl)methyl]-2,8-diazaspiro[5.5]undecane-1,7-dione], in the assay on KCHSC, the “pre-emergence activity against KCHSC” value was 90%. Besides, the “pre-emergence activity against DIGSA” value in the assay on DIGSA (application rate 1280 g/ha) is recorded as 90%.

In the case of `Cc1cc(CN2CCCC3(CCCN(Cc4cc(C)no4)C3=O)C2=O)on1` (racemic) [I-195, 2,8-bis[(3-methyl-1,2-oxazol-5-yl)methyl]-2,8-diazaspiro[5.5]undecane-1,7-dione], the pest or weed control at 1280 g/ha in the assay on POAAN [1] (application rate 1280 g/ha) was determined as 100%.

For `Cc1ccccc1CN1CCCC2(CCN(Cc3c(F)cccc3F)C2=O)C1=O` (racemic) [I-077], the “pre-emergence activity against STEME” value in the assay on STEME came to 90%. Moreover, the “pre-emergence activity against SETVI” value in the assay with SETVI (application rate 1280 g/ha) was found to be 100%. Besides, the “pre-emergence activity against LOLRI” value in the assay on LOLRI (application rate 320 g/ha) was determined as 100%. Besides, the “pre-emergence activity against POAAN” value with POAAN [1] (application rate 320 g/ha) was 100%. Also, the “pre-emergence activity against DIGSA” value in the assay on DIGSA (application rate 320 g/ha) was 90%.

As for `O=C1N(Cc2cc(Cl)cnc2Cl)CCCC12CCCN(Cc1cc(Cl)cnc1Cl)C2=O` (racemic) [I-117], in the assay with SETVI (application rate 1280 g/ha), the “pre-emergence activity against SETVI” value was determined as 100%. Besides, the “pre-emergence activity against POAAN” value with POAAN [1] (application rate 1280 g/ha) is reported as 100%.

As for `O=C1N(Cc2ccsc2)CCCC12CCCN(Cc1ccccc1Cl)C2=O` (racemic) [I-099], in the assay with SETVI (application rate 1280 g/ha), the “pre-emergence activity against SETVI” value was 100%. Also, the “pre-emergence activity against LOLRI” value in the assay on LOLRI (application rate 1280 g/ha) is 100%. Besides, the “pre-emergence activity against ECHCG” value in the assay with ECHCG [3] was found to be 100%.

In the case of `O=C1N(Cc2cnc(Br)s2)CCCC12CCCN(Cc1cnc(Br)s1)C2=O` (racemic) [I-204, 2,8-bis[(2-bromo-1,3-thiazol-5-yl)methyl]-2,8-diazaspiro[5.5]undecane-1,7-dione], the pest or weed control at 1280 g/ha in the assay with LOLRI (Lolium rigidum, pre-emergence, 504 h, application rate 1280 g/ha, read-out: pre-emergence activity against LOLRI) worked out at 90%; in the assay on POAAN [1] (application rate 1280 g/ha), 100%. In addition, the “pre-emergence activity against ECHCG” value with ECHCG [3] is 100%.

`O=C1N(Cc2cnc(Br)s2)CCCC12CCCN(Cc1cnc(Br)s1)C2=O` (single isomer, unassigned; (-)) [I-206, (-)-2,8-bis[(2-bromo-1,3-thiazol-5-yl)methyl]-2,8-diazaspiro[5.5]undecane-1,7-dione]: the “pre-emergence activity against STEME” value with STEME stood at 90%. The “pre-emergence activity against SETVI” value in the assay with SETVI (application rate 1280 g/ha) is 100%. Also, in the assay with LOLRI (application rate 1280 g/ha), the “pre-emergence activity against LOLRI” value is 90%. The “pre-emergence activity against ECHCG” value in the assay with ECHCG [3] is 100%. Also, the “pre-emergence activity against POAAN” value in the assay on POAAN [1] (application rate 320 g/ha) is given as 100%. Further, the “pre-emergence activity against DIGSA” value in the assay with DIGSA (application rate 1280 g/ha) is 90%.

For the compound `CCc1cc(CN2CCCC3(CCCN(Cc4cc(CC)no4)C3=O)C2=O)on1` (racemic) [I-100], the “pre-emergence activity against LOLRI” value in the assay with LOLRI (application rate 1280 g/ha) stood at 100%. Moreover, in the assay on ECHCG [3], the “pre-emergence activity against ECHCG” value was 100%.

Take `O=C1N(Cc2c(F)cccc2F)CCCC12CCCN(CC1CCCCC1)C2=O` (racemic) [I-034]: the “pre-emergence activity against STEME” value with STEME turned out to be 100%. Moreover, the “post-emergence activity against POAAN” value in the assay with POAAN [4] was 90%. In addition, the “pre-emergence activity against SETVI” value in the assay on SETVI (application rate 320 g/ha) came out at 90%. For the same compound, the “pre-emergence activity against LOLRI” value in the assay with LOLRI (application rate 1280 g/ha) is 100%. In the assay on ECHCG [3], the “pre-emergence activity against ECHCG” value is 90%. Moreover, in the assay with POAAN [1] (application rate 320 g/ha), the “pre-emergence activity against POAAN” value is listed as 100%. Also, the “pre-emergence activity against DIGSA” value in the assay with DIGSA (application rate 1280 g/ha) turned out to be 100%.
